In patent US12565490B2, “Inhibitors of Receptor Interacting Protein Kinase I for the treatment of disease” (Board of Regents, The University of Texas System, priority 2020, dated 2026):

Tested on: human monocytic cell line U937
Test: Human U937 cellular necroptosis assay
Type: cell-based
Conditions: U-937; U937 cells stimulated with 25 ng/mL human TNFalpha and 25 μM z-VAD-FMK; 22 hr; viability by Cell Titer-Glo 2.0; read-out: hU937 IC50
Method: Human U937 Cellular Necroptosis Assay
The human monocytic cell line U937 (CRL-1593.2) may be purchased from ATCC. The cells are routinely maintained in RPMI-1640 Medium (Gibco, Catalog #11875-093) supplemented with 10% heat inactivated fetal bovine serum (Gibco, Catalog #16140-071), 100 units/mL penicillin and 100 μg/mL streptomycin (Gibco, Catalog #15140-122), in a humidified incubator (37° C., 5% CO2). For the assay, cells are resuspended in RPMI-1640 phenol red free Media (Gibco, Catalog #11835-030) supplemented with 10% fetal bovine serum (Sigma, Catalog #F2442), 100 units/mL penicillin and 100 ug/mL streptomycin. Cells are stimulated with 25 ng/mL human TNFalpha (Cell Sciences, Catalog #CSI15659B) and 25 μM z-VAD-FMK (R&D Systems, Catalog #FMK001) followed by seeding 5000 cells per well in a volume of 40 μL to a white, CulturPlate-384 (Perkin Elmer, Catalog #6007680). Stock solutions of the test compounds are prepared in 100% DMSO (Sigma, Catalog #D2650) and serially diluted 1:3 using 100% DMSO. Compounds are additionally diluted 1:40 in assay medium, and 10 μL/well was transferred to the plate. Following the compound addition, the plate is incubated at 37° C. and 5% CO2 for 22 hr. After 22 hr, viability is assessed with the addition of 20 μL of Cell Titer-Glo 2.0 (Promega, Catalog #G9243). The tissue culture plate is shaken on an orbital shaker at 300 RPM for 15 minutes at room temperature in the dark. Luminescence is measured using a PerkinElmer Envision™ plate reader. IC50 values are calculated using a four-parameter logistic curve fit using Genedata Screener software. Compounds disclosed herein are expected to have activity in this assay.

SMILES | IC50
Cc1cnc(C(=O)N[C@H]2COc3cccnc3N(C)C2=O)nc1-c1cccc(F)c1F [Example 59, (S)-4-(2,3-difluorophenyl)-5-methyl-N-(5-methyl-4-oxo-2,3,4,5-tetrahydropyrido[3,2-b]-[1,4]oxazepin-3-yl)pyrimidine-2-carboxamide] | 13.9 nM
Cc1cnc(C(=O)N[C@H]2COc3cccnc3N(C)C2=O)nc1-c1ccc(F)cc1F [Example 60, (S)-4-(2,4-difluorophenyl)-5-methyl-N-(5-methyl-4-oxo-2,3,4,5-tetrahydropyrido[3,2-b]-[1,4]oxazepin-3-yl)pyrimidine-2-carboxamide] | 16.2 nM
Cc1ccc(-c2nc(C(=O)N[C@H]3COc4cccnc4N(C)C3=O)ncc2C)c(F)c1 [Example 61, (S)-4-(2-fluoro-4-methylphenyl)-5-methyl-N-(5-methyl-4-oxo-2,3,4,5-tetrahydropyrido[3,2-b]-[1,4]oxazepin-3-yl)pyrimidine-2-carboxamide] | 16.1 nM
Cc1ccc(-c2nc(C(=O)N[C@H]3COc4cccnc4N(C)C3=O)ncc2C)cc1F [Example 62, (S)-4-(3-fluoro-4-methylphenyl)-5-methyl-N-(5-methyl-4-oxo-2,3,4,5-tetrahydropyrido[3,2-b]-[1,4]oxazepin-3-yl)pyrimidine-2-carboxamide] | 10.4 nM
Cc1cc(F)ccc1-c1ccnc(C(=O)N[C@H]2COc3cc(F)cnc3N(C)C2=O)n1 [Example 63, (S)-4-(4-fluoro-2-methylphenyl)-N-(8-fluoro-5-methyl-4-oxo-2,3,4,5-tetrahydropyrido[3,2-b]-[1,4]oxazepin-3-yl)pyrimidine-2-carboxamide] | 117 nM
Cc1cc(F)cc(F)c1-c1ccnc(C(=O)N[C@H]2COc3cc(F)cnc3N(C)C2=O)n1 [Example 64, (S)-4-(2,4-difluoro-6-methylphenyl)-N-(8-fluoro-5-methyl-4-oxo-2,3,4,5-tetrahydropyrido[3,2-b]-[1,4]oxazepin-3-yl)pyrimidine-2-carboxamide] | 189 nM
Cc1cccc(-c2ccnc(C(=O)N[C@H]3COc4cc(F)cnc4N(C)C3=O)n2)c1 [Example 65, (S)-N-(8-fluoro-5-methyl-4-oxo-2,3,4,5-tetrahydro-pyrido[3,2-b][1,4]oxazepin-3-yl)-4-(m-tolyl)pyrimidine-2-carboxamide] | 177 nM
CN1C(=O)[C@@H](NC(=O)c2ncc(F)c(-c3ccc(F)cc3)n2)COc2cc(F)cnc21 [Example 66, (S)-5-fluoro-N-(8-fluoro-5-methyl-4-oxo-2,3,4,5-tetrahydropyrido[3,2-b]-[1,4]oxazepin-3-yl)-4-(4-fluorophenyl)pyrimidine-2-carboxamide] | 106 nM
Cc1cc(F)ccc1-c1nc(C(=O)N[C@H]2COc3cc(F)cnc3N(C)C2=O)ncc1F [Example 67, (S)-5-fluoro-4-(4-fluoro-2-methylphenyl)-N-(8-fluoro-5-methyl-4-oxo-2,3,4,5-tetrahydropyrido[3,2-b]-[1,4]oxazepin-3-yl)pyrimidine-2-carboxamide] | 24.7 nM
CN1C(=O)[C@@H](NC(=O)c2ncc(Cl)c(-c3ccccc3)n2)COc2cc(F)cnc21 [Example 69, (S)-5-chloro-N-(8-fluoro-5-methyl-4-oxo-2,3,4,5-tetrahydropyrido[3,2-b]-[1,4]oxazepin-3-yl)-4-phenylpyrimidine-2-carboxamide] | 7.41 nM
CN1C(=O)[C@@H](NC(=O)c2ncc(Cl)c(-c3cccc(F)c3)n2)COc2cc(F)cnc21 [Example 70, (S)-5-chloro-N-(8-fluoro-5-methyl-4-oxo-2,3,4,5-tetrahydropyrido[3,2-b]-[1,4]oxazepin-3-yl)-4-(3-fluorophenyl)pyrimidine-2-carboxamide] | 9.94 nM
CN1C(=O)[C@@H](NC(=O)c2ncc(Cl)c(-c3ccc(F)cc3)n2)COc2cc(F)cnc21 [Example 71, (S)-5-chloro-N-(8-fluoro-5-methyl-4-oxo-2,3,4,5-tetrahydropyrido[3,2-b]-[1,4]oxazepin-3-yl)-4-(4-fluorophenyl)pyrimidine-2-carboxamide] | 8.83 nM
CN1C(=O)[C@@H](NC(=O)c2ncc(Cl)c(-c3cccc(F)c3F)n2)COc2cc(F)cnc21 [Example 72, (S)-5-chloro-4-(2,3-difluorophenyl)-N-(8-fluoro-5-methyl-4-oxo-2,3,4,5-tetrahydropyrido[3,2-b]-[1,4]oxazepin-3-yl)pyrimidine-2-carboxamide] | 25.5 nM
CN1C(=O)[C@@H](NC(=O)c2ncc(Cl)c(-c3ccc(F)cc3F)n2)COc2cc(F)cnc21 [Example 73, (S)-5-chloro-4-(2,4-difluorophenyl)-N-(8-fluoro-5-methyl-4-oxo-2,3,4,5-tetrahydropyrido[3,2-b]-[1,4]oxazepin-3-yl)pyrimidine-2-carboxamide] | 11.4 nM
CN1C(=O)[C@@H](NC(=O)c2ncc(Cl)c(-c3cc(F)ccc3F)n2)COc2cc(F)cnc21 [Example 74, (S)-5-chloro-4-(2,5-difluorophenyl)-N-(8-fluoro-5-methyl-4-oxo-2,3,4,5-tetrahydropyrido[3,2-b]-[1,4]oxazepin-3-yl)pyrimidine-2-carboxamide] | 11 nM
CN1C(=O)[C@@H](NC(=O)c2ncc(Cl)c(-c3ccc(F)c(F)c3)n2)COc2cc(F)cnc21 [Example 75, (S)-5-chloro-4-(3,4-difluorophenyl)-N-(8-fluoro-5-methyl-4-oxo-2,3,4,5-tetrahydropyrido[3,2-b]-[1,4]oxazepin-3-yl)pyrimidine-2-carboxamide] | 11.9 nM
CN1C(=O)[C@@H](NC(=O)c2ncc(Cl)c(-c3cc(F)cc(F)c3)n2)COc2cc(F)cnc21 [Example 76, (S)-5-chloro-4-(3,5-difluorophenyl)-N-(8-fluoro-5-methyl-4-oxo-2,3,4,5-tetrahydropyrido [3,2-b]-[1,4]oxazepin-3-yl)pyrimidine-2-carboxamide] | 16.5 nM
Cc1ccc(-c2nc(C(=O)N[C@H]3COc4cc(F)cnc4N(C)C3=O)ncc2Cl)c(F)c1 [Example 77, (S)-5-chloro-4-(2-fluoro-4-methylphenyl)-N-(8-fluoro-5-methyl-4-oxo-2,3,4,5-tetrahydropyrido[3,2-b]-[1,4]oxazepin-3-yl)pyrimidine-2-carboxamide] | 9.14 nM
Cc1ccc(-c2nc(C(=O)N[C@H]3COc4cc(F)cnc4N(C)C3=O)ncc2Cl)cc1F [Example 78, (S)-5-chloro-4-(3-fluoro-4-methylphenyl)-N-(8-fluoro-5-methyl-4-oxo-2,3,4,5-tetrahydropyrido[3,2-b]-[1,4]oxazepin-3-yl)pyrimidine-2-carboxamide] | 8.3 nM
Cc1cc(-c2nc(C(=O)N[C@H]3COc4cc(F)cnc4N(C)C3=O)ncc2Cl)ccc1F [Example 79, (S)-5-chloro-4-(4-fluoro-3-methylphenyl)-N-(8-fluoro-5-methyl-4-oxo-2,3,4,5-tetrahydropyrido[3,2-b]-[1,4]oxazepin-3-yl)pyrimidine-2-carboxamide] | 18.9 nM
CN1C(=O)[C@@H](NC(=O)c2ncc(Cl)c(-c3ccccc3Cl)n2)COc2cc(F)cnc21 [Example 80, (S)-5-chloro-4-(2-chlorophenyl)-N-(8-fluoro-5-methyl-4-oxo-2,3,4,5-tetrahydropyrido[3,2-b]-[1,4]oxazepin-3-yl)pyrimidine-2-carboxamide] | 15.2 nM
